# Data: ChEMBL document CHEMBL1201861, “Genomics of Drug Sensitity in Cancer screening data, Wellcome Trust Sanger Institute”
# Tests used:
# [1] = test system: COR-L23; assay: cells; type: functional, cell-based; details: Homo sapiens;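 also: cell viability assay measuring how strongly compounds suppress growth of COR-L23 cells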
# Description: SANGER: Inhibition of human COR-L23 cell growth in a cell viability assay.
# [2] = test system: COR-L279; assay: SANGER: Inhibition of human COR-L279 cell growth in a cell viability assay.; type: functional, cell-based
# [3] = test system: ChaGo-K-1; assay: cells; type: functional, cell-based; details: Homo sapiens;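 also: growth inhibition of ChaGo-K-1 cells, read out with a cell viability assay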
# Description: SANGER: Inhibition of human ChaGo-K-1 cell growth in a cell viability assay.
# [4] = test system: D-542MG; assay: cells; type: functional, cell-based; details: Homo sapiens
# Description: SANGER: Inhibition of human D-542MG cell growth in a cell viability assay.
# [5] = test system: Daudi; assay: cells; type: functional, cell-based; details: Homo sapiens;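 also: growth inhibition of Daudi cells, read out by a viability assay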
# Description: SANGER: Inhibition of human Daudi cell growth in a cell viability assay.
# [6] = test system: EB2; assay: cells; type: functional, cell-based; details: Homo sapiens;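 also: growth inhibition of EB2 cells, read out with a cell viability assay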
# Description: SANGER: Inhibition of human EB2 cell growth in a cell viability assay.
# [7] = test system: ECC4; assay: cells; type: functional, cell-based; details: Homo sapiens;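 also: growth inhibition of ECC4 cells, read out with a cell viability assay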
# Description: SANGER: Inhibition of human ECC4 cell growth in a cell viability assay.
# [8] = test system: EGI-1; assay: cells; type: functional, cell-based; details: Homo sapiens;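 also: cell viability readout used to gauge growth inhibition of EGI-1 cells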
# Description: SANGER: Inhibition of human EGI-1 cell growth in a cell viability assay.
# [9] = test system: EVSA-T; assay: cells; type: functional, cell-based; details: Homo sapiens;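 also: growth inhibition of EVSA-T cells, read out with a cell viability assay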
# Description: SANGER: Inhibition of human EVSA-T cell growth in a cell viability assay.
# [10] = test system: HCT-116; assay: cells; type: functional, cell-based; details: Homo sapiens
# Description: SANGER: Inhibition of human HCT-116 cell growth in a cell viability assay.
# [11] = test system: HLE; assay: cells; type: functional, cell-based; details: Homo sapiens;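 also: growth inhibition of human HLE cells, read out by a cell viability assay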
# Description: SANGER: Inhibition of human HLE cell growth in a cell viability assay.
# [12] = test system: HPAF-II; assay: cells; type: functional, cell-based; details: Homo sapiens;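 also: growth inhibition of HPAF-II cells, read out with a cell viability assay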
# Description: SANGER: Inhibition of human HPAF-II cell growth in a cell viability assay.
# [13] = test system: HT1197; assay: cells; type: functional, cell-based, HT-1197; details: Homo sapiens
# Description: SANGER: Inhibition of human HT-1197 cell growth in a cell viability assay.
# [14] = test system: HuP-T4; assay: cells; type: functional, cell-based; details: Homo sapiens;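 also: cell viability assay measuring how much HuP-T4 cell growth is inhibited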
# Description: SANGER: Inhibition of human HuP-T4 cell growth in a cell viability assay.
# [15] = test system: IST-SL2; assay: cells; type: functional, cell-based; details: Homo sapiens;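 also: growth inhibition of human IST-SL2 cells, read out by a cell viability assay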
# Description: SANGER: Inhibition of human IST-SL2 cell growth in a cell viability assay.
# [16] = test system: KMS-12-PE; assay: cells; type: functional, cell-based; details: Homo sapiens;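 also: growth inhibition of human KMS-12-PE cells, measured with a cell viability assay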
# Description: SANGER: Inhibition of human KMS-12-PE cell growth in a cell viability assay.
# [17] = test system: KU-19-19; assay: cells; type: functional, cell-based; details: Homo sapiens
# Description: SANGER: Inhibition of human KU-19-19 cell growth in a cell viability assay.
# [18] = test system: KYSE-150 cell line; assay: cells; type: functional, cell-based; details: Homo sapiens;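 also: growth inhibition of human KYSE-150 cells, read out with a cell viability assay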
# Description: SANGER: Inhibition of human KYSE-150 cell growth in a cell viability assay.
# [19] = test system: KYSE-180; assay: cells; type: functional, cell-based; details: Homo sapiens;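 also: growth inhibition of KYSE-180 cells, read out with a cell viability assay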
# Description: SANGER: Inhibition of human KYSE-180 cell growth in a cell viability assay.
# [20] = test system: KYSE-270; assay: cells; type: functional, cell-based; details: Homo sapiens;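 also: cell growth inhibition measured with a viability assay in the human KYSE-270 line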
# Description: SANGER: Inhibition of human KYSE-270 cell growth in a cell viability assay.
# [21] = test system: LB996-RCC; assay: cells; type: functional, cell-based; details: Homo sapiens
# Description: SANGER: Inhibition of human LB996-RCC cell growth in a cell viability assay.
# [22] = test system: MDA-MB-468; assay: cells; type: functional, cell-based; details: Homo sapiens
# Description: SANGER: Inhibition of human MDA-MB-468 cell growth in a cell viability assay.
# [23] = test system: ME-180; assay: cells; type: functional, cell-based; details: Homo sapiens;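 also: cell viability assay measuring growth inhibition of ME-180 cells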
# Description: SANGER: Inhibition of human ME-180 cell growth in a cell viability assay.
# [24] = test system: MEL-HO; assay: cells; type: functional, cell-based; details: Homo sapiens
# Description: SANGER: Inhibition of human MEL-HO cell growth in a cell viability assay.
# [25] = test system: MEL-JUSO; assay: cells; type: functional, cell-based; details: Homo sapiens;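 also: growth inhibition of human MEL-JUSO cells, read out with a cell viability assay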
# Description: SANGER: Inhibition of human MEL-JUSO cell growth in a cell viability assay.
# [26] = test system: MONO-MAC-6; assay: cells; type: functional, cell-based; details: Homo sapiens;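 also: cell viability assay measuring growth inhibition of human MONO-MAC-6 cells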
# Description: SANGER: Inhibition of human MONO-MAC-6 cell growth in a cell viability assay.
# [27] = test system: NB1; assay: cells; type: functional, cell-based; details: Homo sapiens;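 also: reduction of NB1 cell proliferation, read out with a viability assay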
# Description: SANGER: Inhibition of human NB1 cell growth in a cell viability assay.
# [28] = test system: NCI-H1703; assay: cells; type: functional, cell-based; details: Homo sapiens;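 also: growth inhibition of NCI-H1703 cells, read out via a cell viability assay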
# Description: SANGER: Inhibition of human NCI-H1703 cell growth in a cell viability assay.
# [29] = test system: NCI-H2081; assay: cells; type: functional, cell-based; details: Homo sapiens;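 also: growth inhibition of human NCI-H2081 cells, read out with a cell viability assay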
# Description: SANGER: Inhibition of human NCI-H2081 cell growth in a cell viability assay.
# [30] = test system: NCI-H2228; assay: cells; type: functional, cell-based; details: Homo sapiens;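 also: growth inhibition of human NCI-H2228 cells, read out by a cell viability assay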
# Description: SANGER: Inhibition of human NCI-H2228 cell growth in a cell viability assay.
# [31] = test system: NCI-H2347; assay: cells; type: functional, cell-based; details: Homo sapiens;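 also: growth inhibition of the cell line, read out with a cell viability assay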
# Description: SANGER: Inhibition of human NCI-H2347 cell growth in a cell viability assay.
# [32] = test system: NCI-H322M; assay: cells; type: functional, cell-based; details: Homo sapiens;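 also: cell viability assay measuring inhibition of growth of human NCI-H322M cells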
# Description: SANGER: Inhibition of human NCI-H322M cell growth in a cell viability assay.
# [33] = test system: NCI-H748; assay: cells; type: functional, cell-based; details: Homo sapiens;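 also: growth inhibition of NCI-H748 cells, measured by a cell viability assay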
# Description: SANGER: Inhibition of human NCI-H748 cell growth in a cell viability assay.
# [34] = test system: NCI-H889; assay: cells; type: functional, cell-based; details: Homo sapiens;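 also: cell growth inhibition of the cell line, read out with a viability assay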
# Description: SANGER: Inhibition of human NCI-H889 cell growth in a cell viability assay.
# [35] = test system: SNU-16; assay: cells; type: functional, cell-based; details: Homo sapiens;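 also: growth inhibition of human SNU-16 cells, determined with a cell viability readout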
# Description: SANGER: Inhibition of human NCI-SNU-16 cell growth in a cell viability assay.
# [36] = test system: PANC-03-27; assay: cells; type: functional, cell-based; details: Homo sapiens
# Description: SANGER: Inhibition of human PANC-03-27 cell growth in a cell viability assay.
# [37] = test system: PANC-08-13; assay: cells; type: functional, cell-based; details: Homo sapiens
# Description: SANGER: Inhibition of human PANC-08-13 cell growth in a cell viability assay.
# [38] = test system: PC-14; assay: cells; type: functional, cell-based; details: Homo sapiens;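 also: cell viability assay measuring inhibition of PC-14 cell growth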
# Description: SANGER: Inhibition of human PC-14 cell growth in a cell viability assay.
# [39] = test system: PLC-PRF-5; assay: cells; type: functional, cell-based; details: Homo sapiens;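 also: growth inhibition of human PLC-PRF-5 cells, read out with a viability assay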
# Description: SANGER: Inhibition of human PLC-PRF-5 cell growth in a cell viability assay.
# [40] = test system: RERF-LC-MS; assay: cells; type: functional, cell-based; details: Homo sapiens;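 also: growth inhibition of human RERF-LC-MS cells, read out by a cell viability assay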
# Description: SANGER: Inhibition of human RERF-LC-MS cell growth in a cell viability assay.
# [41] = test system: RMG-I; assay: cells; type: functional, cell-based; details: Homo sapiens;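 also: growth inhibition of human RMG-I cells, read out with a cell viability assay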
# Description: SANGER: Inhibition of human RMG-I cell growth in a cell viability assay.
# [42] = test system: RPMI 8402; assay: SANGER: Inhibition of human RPMI-8402 cell growth in a cell viability assay.; type: functional, cell-based
# [43] = test system: RT-4; assay: SANGER: Inhibition of human RT4 cell growth in a cell viability assay.; type: functional, cell-based
# [44] = test system: SNU-387; assay: cells; type: functional, cell-based; details: Homo sapiens
# Description: SANGER: Inhibition of human SNU-387 cell growth in a cell viability assay.
# [45] = test system: SNU-423; assay: cells; type: functional, cell-based; details: Homo sapiens
# Description: SANGER: Inhibition of human SNU-423 cell growth in a cell viability assay.
# [46] = test system: SW1463; assay: cells; type: functional, cell-based; details: Homo sapiens;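 also: growth inhibition of SW1463 cells, determined with a cell viability assay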
# Description: SANGER: Inhibition of human SW1463 cell growth in a cell viability assay.
# [47] = test system: SW48; assay: cells; type: functional, cell-based; details: Homo sapiens;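 also: growth inhibition of SW48 cells, read out with a cell viability assay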
# Description: SANGER: Inhibition of human SW48 cell growth in a cell viability assay.
# [48] = test system: SW780; assay: cells; type: functional, cell-based; details: Homo sapiens;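 also: growth inhibition of the cells, read out with a cell viability assay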
# Description: SANGER: Inhibition of human SW780 cell growth in a cell viability assay.
# [49] = test system: T47D; assay: cells; type: functional, cell-based; details: Homo sapiens;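 also: growth inhibition of human T47D cells, measured with a cell viability assay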
# Description: SANGER: Inhibition of human T47D cell growth in a cell viability assay.
# [50] = test system: 647-V; assay: cells; type: functional, cell-based; details: Homo sapiens;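 also: growth inhibition of 647-V cells, read out with a cell viability assay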
# Description: SANGER: Inhibition of human 647-V cell growth in a cell viability assay.
# [51] = test system: A 172; assay: cells; type: functional, cell-based; details: Homo sapiens;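 also: growth inhibition of A172 cells, measured with a cell viability readout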
# Description: SANGER: Inhibition of human A172 cell growth in a cell viability assay.
# [52] = test system: A253 cell line; assay: cells; type: functional, cell-based; details: Homo sapiens;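 also: growth inhibition of A253 cells, read out with a cell viability assay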
# Description: SANGER: Inhibition of human A253 cell growth in a cell viability assay.
# [53] = test system: AGS; assay: cells; type: functional, cell-based; details: Homo sapiens;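 also: growth inhibition of AGS cells, determined with a cell viability assay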
# Description: SANGER: Inhibition of human AGS cell growth in a cell viability assay.
# [54] = test system: BFTC-909; assay: cells; type: functional, cell-based; details: Homo sapiens
# Description: SANGER: Inhibition of human BFTC-909 cell growth in a cell viability assay.
# [55] = test system: C3A; assay: cells; type: functional, cell-based; details: Homo sapiens;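 also: growth inhibition of C3A human cells, quantified with a cell viability readout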
# Description: SANGER: Inhibition of human C3A cell growth in a cell viability assay.
# [56] = test system: CAL-51; assay: cells; type: functional, cell-based; details: Homo sapiens;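 also: human CAL-51 cell line, growth inhibition read out via a cell viability assay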
# Description: SANGER: Inhibition of human CAL-51 cell growth in a cell viability assay.
# [57] = test system: CAL-62; assay: cells; type: functional, cell-based; details: Homo sapiens;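 also: growth inhibition of CAL-62 cells, read out with a cell viability assay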
# Description: SANGER: Inhibition of human CAL-62 cell growth in a cell viability assay.
# [58] = test system: TE-441-T; assay: cells; type: functional, cell-based; details: Homo sapiens
# Description: SANGER: Inhibition of human TE-441-T cell growth in a cell viability assay.
# [59] = test system: TYK-nu; assay: cells; type: functional, cell-based; details: Homo sapiens;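 also: growth inhibition of human TYK-nu cells, read out by a cell viability assay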
# Description: SANGER: Inhibition of human TYK-nu cell growth in a cell viability assay.
compound,measurement,setting,value
C/C(O)=C(\C#N)C(=O)Nc1cc(Br)ccc1Br,IC50,[1],> 16 µM
same,IC50,[2],> 16 µM
same,IC50,[3],> 16 µM
same,IC50,[4],> 16 µM
same,IC50,[5],> 16 µM
same,IC50,[6],> 16 µM
same,IC50,[7],> 16 µM
same,IC50,[8],> 16 µM
same,IC50,[9],> 16 µM
same,IC50,[10],> 16 µM
same,IC50,[11],> 16 µM
same,IC50,[12],> 16 µM
same,IC50,[13],> 16 µM
same,IC50,[14],> 16 µM
same,IC50,[15],> 16 µM
same,IC50,[16],> 16 µM
same,IC50,[17],> 16 µM
same,IC50,[18],> 16 µM
same,IC50,[19],> 16 µM
same,IC50,[20],> 16 µM
same,IC50,[21],> 16 µM
same,IC50,[22],> 16 µM
same,IC50,[23],> 16 µM
same,IC50,[24],> 16 µM
same,IC50,[25],> 16 µM
same,IC50,[26],> 16 µM
same,IC50,[27],> 16 µM
same,IC50,[28],> 16 µM
same,IC50,[29],> 16 µM
same,IC50,[30],> 16 µM
same,IC50,[31],> 16 µM
same,IC50,[32],> 16 µM
same,IC50,[33],> 16 µM
same,IC50,[34],> 16 µM
same,IC50,[35],> 16 µM
same,IC50,[36],> 16 µM
same,IC50,[37],> 16 µM
same,IC50,[38],> 16 µM
same,IC50,[39],> 16 µM
same,IC50,[40],> 16 µM
same,IC50,[41],> 16 µM
same,IC50,[42],> 16 µM
same,IC50,[43],> 16 µM
same,IC50,[44],> 16 µM
same,IC50,[45],> 16 µM
same,IC50,[46],> 16 µM
same,IC50,[47],> 16 µM
same,IC50,[48],> 16 µM
same,IC50,[49],> 16 µM
same,IC50,[50],> 16 µM
same,IC50,[51],> 16 µM
same,IC50,[52],> 16 µM
same,IC50,[53],> 16 µM
same,IC50,[54],> 16 µM
same,IC50,[55],> 16 µM
same,IC50,[56],> 16 µM
same,IC50,[57],> 16 µM
same,IC50,[58],> 16 µM
same,IC50,[59],> 16 µM
O=c1[nH]c2ccccc2n1C1CCN(Cc2ccc(-c3nc4cc5[nH]cnc5cc4nc3-c3ccccc3)cc2)CC1,IC50,[1],> 2.56 µM
same,IC50,[2],1.68 µM
same,IC50,[3],> 2.56 µM
same,IC50,[4],> 2.56 µM
same,IC50,[5],> 2.56 µM
same,IC50,[6],> 2.56 µM
same,IC50,[7],> 2.56 µM
same,IC50,[8],> 2.56 µM
same,IC50,[9],> 2.56 µM
same,IC50,[10],> 2.56 µM
same,IC50,[11],> 2.56 µM
same,IC50,[12],> 2.56 µM
same,IC50,[13],> 2.56 µM
same,IC50,[14],> 2.56 µM
same,IC50,[15],> 2.56 µM
same,IC50,[16],> 2.56 µM
same,IC50,[17],> 2.56 µM
same,IC50,[18],> 2.56 µM
same,IC50,[19],> 2.56 µM
same,IC50,[20],> 2.56 µM
same,IC50,[21],> 2.56 µM
same,IC50,[22],> 2.56 µM
same,IC50,[23],> 2.56 µM
same,IC50,[24],> 2.56 µM
same,IC50,[25],> 2.56 µM
same,IC50,[26],> 2.56 µM
same,IC50,[27],> 2.56 µM
same,IC50,[28],> 2.56 µM
same,IC50,[29],> 2.56 µM
same,IC50,[30],2.29 µM
same,IC50,[31],> 2.56 µM
same,IC50,[32],> 2.56 µM
same,IC50,[33],> 2.56 µM
same,IC50,[34],> 2.56 µM
same,IC50,[35],> 2.56 µM
same,IC50,[36],> 2.56 µM
same,IC50,[37],> 2.56 µM
same,IC50,[38],> 2.56 µM
same,IC50,[39],> 2.56 µM
same,IC50,[40],> 2.56 µM
same,IC50,[41],> 2.56 µM
same,IC50,[42],> 2.56 µM
same,IC50,[43],> 2.56 µM
same,IC50,[44],> 2.56 µM
same,IC50,[45],> 2.56 µM
same,IC50,[46],> 2.56 µM
same,IC50,[47],> 2.56 µM
same,IC50,[48],> 2.56 µM
same,IC50,[49],0.516 µM
same,IC50,[50],> 2.56 µM
same,IC50,[51],> 2.56 µM
same,IC50,[52],> 2.56 µM
same,IC50,[53],> 2.56 µM
same,IC50,[54],> 2.56 µM
same,IC50,[55],> 2.56 µM
same,IC50,[56],> 2.56 µM
same,IC50,[57],> 2.56 µM
same,IC50,[58],> 2.56 µM
same,IC50,[59],> 2.56 µM
